Assay results from ChEMBL document CHEMBL1914384, “Design, synthesis, and structure-activity relationship studies of highly potent novel benzoxazinyl-oxazolidinone antibacterial agents” (J Med Chem, 2011).
Converted amounts (≈) assume the structure as drawn.

Tests used:
Type in all cases: functional
Staphylococcus aureus [1] = assay: Antibacterial activity against Staphylococcus aureus ATCC 29213 after 16 hrs by agar dilution method; conditions: ATCC 29213, 16 h
Staphylococcus aureus [2] = assay: Antibacterial activity against methicillin-resistant Staphylococcus aureus after 16 hrs by agar dilution method
[3] = tested on: Staphylococcus epidermidis; assay: Antibacterial activity against methicillin-resistant Staphylococcus epidermidis after 16 hrs by agar dilution method
Streptococcus pneumoniae = assay: Antibacterial activity against penicillin-resistant Streptococcus pneumoniae after 16 hrs by agar dilution method
Enterococcus faecalis = assay: Antibacterial activity against Enterococcus faecalis after 16 hrs by agar dilution method

Compound | MIC (Staphylococcus aureus [1]) | MIC (Staphylococcus aureus [2]) | MIC [3] | MIC (Streptococcus pneumoniae) | MIC (Enterococcus faecalis)
CC(=O)NC[C@@H]1OC(=O)N2c3ccc(N4CCOCC4)cc3OC[C@@H]12 | 4 µg/mL (≈ 11.5 µM) | 4 µg/mL (≈ 11.5 µM) | 4 µg/mL (≈ 11.5 µM) | 8 µg/mL (≈ 23 µM) | 8 µg/mL (≈ 23 µM)
CC(=O)NC[C@@H]1OC(=O)N2c3ccc(N4CCN(Cc5ccco5)CC4)cc3OC[C@@H]12 | > 16 µg/mL | 16 µg/mL (≈ 37.5 µM) | > 16 µg/mL | > 16 µg/mL | > 16 µg/mL
COc1ncc(-c2ccc3c(c2)OC[C@H]2[C@H](CNC(C)=O)OC(=O)N32)c(OC)n1 | 1 µg/mL (≈ 2.5 µM) | 1 µg/mL (≈ 2.5 µM) | 1 µg/mL (≈ 2.5 µM) | 1 µg/mL (≈ 2.5 µM) | 1 µg/mL (≈ 2.5 µM)
CC(=O)NC[C@@H]1OC(=O)N2c3ccc(-c4ccc(-c5noc(C)n5)nc4)cc3OC[C@@H]12 | 0.25 µg/mL (≈ 0.593 µM) | 0.5 µg/mL (≈ 1.19 µM) | 0.5 µg/mL (≈ 1.19 µM) | 1 µg/mL (≈ 2.37 µM) | 1 µg/mL (≈ 2.37 µM)
CC(=O)NC[C@@H]1OC(=O)N2c3ccc(-c4cccnc4)cc3OC[C@@H]12 | 0.5 µg/mL (≈ 1.47 µM) | 0.5 µg/mL (≈ 1.47 µM) | 0.5 µg/mL (≈ 1.47 µM) | 0.5 µg/mL (≈ 1.47 µM) | 1 µg/mL (≈ 2.95 µM)
CC(=O)NC[C@@H]1OC(=O)N2c3ccc(-c4ccsc4)cc3OC[C@@H]12 | 2 µg/mL (≈ 5.81 µM) | 2 µg/mL (≈ 5.81 µM) | 2 µg/mL (≈ 5.81 µM) | 2 µg/mL (≈ 5.81 µM) | 4 µg/mL (≈ 11.6 µM)
CC(=O)NC[C@@H]1OC(=O)N2c3ccc(-c4ccncc4)cc3OC[C@@H]12 | 0.5 µg/mL (≈ 1.47 µM) | 0.5 µg/mL (≈ 1.47 µM) | 1 µg/mL (≈ 2.95 µM) | 1 µg/mL (≈ 2.95 µM) | 1 µg/mL (≈ 2.95 µM)
CC(=O)NC[C@@H]1OC(=O)N2c3ccc(N4CCN(Cc5ccccc5[N+](=O)[O-])CC4)cc3OC[C@@H]12 | 8 µg/mL (≈ 16.6 µM) | 8 µg/mL (≈ 16.6 µM) | 8 µg/mL (≈ 16.6 µM) | > 16 µg/mL | > 16 µg/mL
CC(=O)NC[C@@H]1OC(=O)N2c3ccc(-c4ccc(C#N)cc4)cc3OC[C@@H]12 | 0.25 µg/mL (≈ 0.688 µM) | 0.5 µg/mL (≈ 1.38 µM) | 0.5 µg/mL (≈ 1.38 µM) | 0.5 µg/mL (≈ 1.38 µM) | 1 µg/mL (≈ 2.75 µM)
CC(=O)NC[C@@H]1OC(=O)N2c3cc(F)c(-c4ccncc4)cc3OC[C@@H]12 | 2 µg/mL (≈ 5.6 µM) | 4 µg/mL (≈ 11.2 µM) | 2 µg/mL (≈ 5.6 µM) | 8 µg/mL (≈ 22.4 µM) | 8 µg/mL (≈ 22.4 µM)
COC(=O)c1ccc(-c2ccc3c(c2)OC[C@H]2[C@H](CNC(C)=O)OC(=O)N32)cn1 | 0.5 µg/mL (≈ 1.26 µM) | 0.5 µg/mL (≈ 1.26 µM) | 0.5 µg/mL (≈ 1.26 µM) | 1 µg/mL (≈ 2.52 µM) | 1 µg/mL (≈ 2.52 µM)
CC(=O)NC[C@@H]1OC(=O)N2c3ccc(-c4cnc(C#N)nc4)cc3OC[C@@H]12 | 1 µg/mL (≈ 2.74 µM) | 1 µg/mL (≈ 2.74 µM) | 0.5 µg/mL (≈ 1.37 µM) | 2 µg/mL (≈ 5.47 µM) | 2 µg/mL (≈ 5.47 µM)
CC(=O)NC[C@@H]1OC(=O)N2c3ccc(-c4ccc(C(C)=O)cn4)cc3OC[C@@H]12 | 2 µg/mL (≈ 5.24 µM) | 2 µg/mL (≈ 5.24 µM) | 2 µg/mL (≈ 5.24 µM) | 2 µg/mL (≈ 5.24 µM) | 4 µg/mL (≈ 10.5 µM)
CC(=O)NC[C@@H]1OC(=O)N2c3ccc(-c4cc(C#N)ccn4)cc3OC[C@@H]12 | 0.5 µg/mL (≈ 1.37 µM) | 0.5 µg/mL (≈ 1.37 µM) | 0.25 µg/mL (≈ 0.686 µM) | 0.25 µg/mL (≈ 0.686 µM) | 1 µg/mL (≈ 2.74 µM)
CC(=O)NC[C@@H]1OC(=O)N2c3cc(F)c(-c4cccnc4)cc3OC[C@@H]12 | 2 µg/mL (≈ 5.6 µM) | 1 µg/mL (≈ 2.8 µM) | 1 µg/mL (≈ 2.8 µM) | 2 µg/mL (≈ 5.6 µM) | 2 µg/mL (≈ 5.6 µM)
CC(=O)NC[C@@H]1OC(=O)N2c3ccc(-c4cccs4)cc3OC[C@@H]12 | 1 µg/mL (≈ 2.9 µM) | 1 µg/mL (≈ 2.9 µM) | 1 µg/mL (≈ 2.9 µM) | 1 µg/mL (≈ 2.9 µM) | 4 µg/mL (≈ 11.6 µM)
CC(=O)NC[C@@H]1OC(=O)N2c3ccc(-c4ccc(C(=O)N(C)C)nc4)cc3OC[C@@H]12 | 2 µg/mL (≈ 4.87 µM) | 1 µg/mL (≈ 2.44 µM) | 1 µg/mL (≈ 2.44 µM) | 2 µg/mL (≈ 4.87 µM) | 2 µg/mL (≈ 4.87 µM)
CC(=O)NC[C@@H]1OC(=O)N2c3ccc(-c4cncnc4)cc3OC[C@@H]12 | 0.25 µg/mL (≈ 0.735 µM) | 0.5 µg/mL (≈ 1.47 µM) | 0.5 µg/mL (≈ 1.47 µM) | 1 µg/mL (≈ 2.94 µM) | 1 µg/mL (≈ 2.94 µM)
CC(=O)NC[C@@H]1OC(=O)N2c3ccc(-c4cncc(C#N)c4)cc3OC[C@@H]12 | 0.5 µg/mL (≈ 1.37 µM) | 0.5 µg/mL (≈ 1.37 µM) | 0.5 µg/mL (≈ 1.37 µM) | 0.5 µg/mL (≈ 1.37 µM) | 1 µg/mL (≈ 2.74 µM)
CC(=O)NC[C@@H]1OC(=O)N2c3ccc(N4CCN(Cc5ccccn5)CC4)cc3OC[C@@H]12 | 16 µg/mL (≈ 36.6 µM) | > 16 µg/mL | > 16 µg/mL | > 16 µg/mL | > 16 µg/mL
CC(=O)NC[C@@H]1OC(=O)N2c3ccc(-c4ccc(-n5cncn5)nc4)cc3OC[C@@H]12 | 0.5 µg/mL (≈ 1.23 µM) | 1 µg/mL (≈ 2.46 µM) | 1 µg/mL (≈ 2.46 µM) | 2 µg/mL (≈ 4.92 µM) | 2 µg/mL (≈ 4.92 µM)
CC(=O)NC[C@@H]1OC(=O)N2c3ccc(N4CCN(Cc5ccoc5)CC4)cc3OC[C@@H]12 | 16 µg/mL (≈ 37.5 µM) | > 8 µg/mL | 8 µg/mL (≈ 18.8 µM) | > 16 µg/mL | > 16 µg/mL
CC(=O)NC[C@@H]1OC(=O)N2c3ccc(-c4ccc(-c5nnn(C)n5)nc4)cc3OC[C@@H]12 | 0.5 µg/mL (≈ 1.19 µM) | 0.5 µg/mL (≈ 1.19 µM) | 0.5 µg/mL (≈ 1.19 µM) | 0.5 µg/mL (≈ 1.19 µM) | 1 µg/mL (≈ 2.37 µM)
